Results: patent US20160355475A1, “NOVEL INDOLE DERIVATIVE COMPOUND AND PHARMACEUTICAL COMPOSITION COMPRISING THE SAME” (CHONG KUN DANG PHARMACEUTICAL CORP., priority 2014, published 2016)

Tests used:
HDAC6 human recombinant = target: T1, HDAC6 human recombinant (Homo sapiens, UniProt Q9UBN7); assay: HDAC6 enzyme activity inhibition (fluorimetric, in vitro); assay type: biochemical; conditions: 37° C., 60 minutes; tested at 0.1, 1, 10, 100 and 1000 nM
T1 construct: purchased Calbiochem 382180
T1 sequence (Q9UBN7 1-1215): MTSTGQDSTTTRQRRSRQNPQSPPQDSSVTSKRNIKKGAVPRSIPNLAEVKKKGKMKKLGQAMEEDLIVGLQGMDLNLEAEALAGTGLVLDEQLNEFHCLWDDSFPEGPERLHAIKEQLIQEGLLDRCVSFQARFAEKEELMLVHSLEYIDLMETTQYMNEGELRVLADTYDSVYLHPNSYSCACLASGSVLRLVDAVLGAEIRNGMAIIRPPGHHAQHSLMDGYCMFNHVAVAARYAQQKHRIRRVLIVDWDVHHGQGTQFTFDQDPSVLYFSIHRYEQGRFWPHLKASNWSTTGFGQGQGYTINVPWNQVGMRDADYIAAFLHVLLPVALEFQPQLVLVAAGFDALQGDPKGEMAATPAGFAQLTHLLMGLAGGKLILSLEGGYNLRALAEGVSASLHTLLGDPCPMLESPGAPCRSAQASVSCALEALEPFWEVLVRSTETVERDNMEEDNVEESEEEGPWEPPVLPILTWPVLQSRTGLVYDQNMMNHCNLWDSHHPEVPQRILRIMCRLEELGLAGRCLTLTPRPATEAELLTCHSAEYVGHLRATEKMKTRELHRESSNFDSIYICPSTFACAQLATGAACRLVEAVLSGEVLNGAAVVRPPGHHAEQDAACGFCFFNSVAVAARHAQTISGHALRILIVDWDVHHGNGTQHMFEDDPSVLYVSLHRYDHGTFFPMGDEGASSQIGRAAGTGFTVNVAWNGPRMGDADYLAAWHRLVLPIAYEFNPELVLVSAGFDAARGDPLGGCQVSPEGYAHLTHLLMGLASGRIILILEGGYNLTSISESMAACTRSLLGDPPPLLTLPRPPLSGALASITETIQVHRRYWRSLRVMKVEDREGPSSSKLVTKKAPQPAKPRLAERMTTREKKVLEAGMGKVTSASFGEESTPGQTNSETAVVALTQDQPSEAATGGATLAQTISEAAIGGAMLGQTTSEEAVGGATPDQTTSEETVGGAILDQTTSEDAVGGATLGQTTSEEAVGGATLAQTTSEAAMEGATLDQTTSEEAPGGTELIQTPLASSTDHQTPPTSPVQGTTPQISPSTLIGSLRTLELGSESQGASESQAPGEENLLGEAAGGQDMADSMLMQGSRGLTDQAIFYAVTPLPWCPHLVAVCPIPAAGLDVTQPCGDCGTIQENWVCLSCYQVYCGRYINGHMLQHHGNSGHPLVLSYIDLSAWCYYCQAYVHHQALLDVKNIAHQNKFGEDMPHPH
Experimental: (§1) 1. Experiment on Activities in HDAC Enzymes (HDAC1 and HDAC6)
(§2) Assays were performed using a HDAC1 fluorimetric drug discovery assay kit (Enzolifesciences: BML-AK511) and a HDAC6 human recombinant (Calbiochem: 382180). The assay mixture of the kit was treated with each of the compounds of the Examples at concentrations 100, 1000 and 10000 nM for HDAC1 assay and 0.1, 1, 10, 100 and 1000 nM for HDAC6 assay. The treated assay mixture was allowed to react at 37° C. for 60 minutes, and then was treated with a developer and allowed to stand at 37° C. for 30 minutes, followed by quantification of the fluorescence. In Table 17, lower HDAC6 values (μM) indicate higher HDAC6 inhibitory activities of the compounds. Also, because selective HDAC6 inhibitors should not inhibit HDAC1 (μM), higher HDAC1 values indicate higher HDAC6 selectivity of the compounds.

HDAC1 = target: T2, HDAC1 (Homo sapiens, UniProt Q13547); assay: HDAC1 enzyme activity inhibition (HDAC1 fluorimetric drug discovery assay kit); assay type: biochemical; conditions: 37° C., 60 minutes; tested at 100, 1000 and 10000 nM
T2 construct: purchased Enzolifesciences BML-AK511
Experimental: as §1, §2

T2 sequence (Q13547 whole entry): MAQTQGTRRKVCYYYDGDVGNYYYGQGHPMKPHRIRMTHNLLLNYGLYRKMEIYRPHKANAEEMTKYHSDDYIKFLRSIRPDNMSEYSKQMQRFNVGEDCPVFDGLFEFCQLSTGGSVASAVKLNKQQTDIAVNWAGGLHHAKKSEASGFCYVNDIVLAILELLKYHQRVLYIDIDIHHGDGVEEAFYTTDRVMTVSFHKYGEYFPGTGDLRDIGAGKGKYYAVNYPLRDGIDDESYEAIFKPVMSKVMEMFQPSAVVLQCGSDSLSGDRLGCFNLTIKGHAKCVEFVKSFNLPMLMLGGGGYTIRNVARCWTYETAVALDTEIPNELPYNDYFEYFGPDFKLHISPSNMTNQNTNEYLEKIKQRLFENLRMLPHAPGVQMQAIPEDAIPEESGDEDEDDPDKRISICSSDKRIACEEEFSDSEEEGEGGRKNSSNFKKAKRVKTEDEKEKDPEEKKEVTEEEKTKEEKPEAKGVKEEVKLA

Row | Structure (SMILES) | IC50 (HDAC6 human recombinant) [nM] | IC50 (HDAC1) [nM]
1 | Cc1c(Cc2ccc(C(=O)NO)cc2)c2ccccc2n1CC1CN(CC2(F)COC2)C1 [Compound 749, 4-((1-((1-((3-Fluorooxetan-3-yl)methyl)azetidin-3-yl)methyl)-2-methyl-1H-indol-3-yl)methyl)-N-hydroxybenzamide] | 92 | 8590
2 | Cc1c(Cc2ccc(C(=O)NO)cc2)c2ccccc2n1CCCCN1CCN(CC(C)(C)F)CC1 [Compound 639, 4-((1-(4-(4-(2-Fluoro-2-methylpropyl)piperazin-1-yl)butyl)-2-methyl-1H-indol-3-yl)methyl)-N-hydroxybenzamide] | 76 | 4980
3 | Cc1c(Cc2ccc(C(=O)NO)cc2)c2ccccc2n1CC1CCN(CC2(F)CCN(CC(C)(C)F)CC2)CC1 [Compound 615, 4-((1-((1-((4-Fluoro-1-(2-fluoro-2-methylpropyl)piperidin-4-yl)methyl)piperidin-4-yl)methyl)-2-methyl-1H-indol-3-yl)methyl)-N-hydroxybenzamide] | 7 | > 10000
4 | Cc1c(Cc2ccc(C(=O)NO)cc2)c2ccccc2n1CC1CCN(CC2(F)CCCCC2)CC1 [Compound 698, 4-((1-((1-((1-Fluorocyclohexyl)methyl)piperidin-4-yl)methyl)-2-methyl-1H-indol-3-yl)methyl)-N-hydroxybenzamide] | 430 | > 10000
5 | COCCN1CCN(CCn2c(C)c(Cc3ccc(C(=O)NO)cc3)c3ccccc32)CC1 [Compound 198, N-hydroxy-4-((1-(2-(4-(2-methoxyethyl)piperazin-1-yl)ethyl)-2-methyl-1H-indol-3-yl)methyl)benzamide] | 5 | 1890
6 | Cc1c(Cc2ccc(C(=O)NO)cc2)c2ccccc2n1CC1CCN(CC2(F)CCN(C(=O)OC(C)(C)C)CC2)CC1 [Compound 610, Tert-butyl 4-fluoro-4-((4-((3-(4-(hydroxycarbamoyl)benzyl)-2-methyl-1H-indol-1-yl)methyl)piperidin-1-yl)methyl)piperidine-1-carboxylate] | 79 | > 10000
7 | Cc1c(Cc2ccc(C(=O)NO)cc2)c2ccccc2n1CCN1CCN(C(C)C)CC1 [Compound 196, N-hydroxy-4-((1-(2-(4-isopropylpiperazin-1-yl)ethyl)-2-methyl-1H-indol-3-yl)methyl)benzamide] | 6 | 1610
8 | Cc1c(Cc2ccc(C(=O)NO)cc2)c2ccccc2n1CC1CCN(Cc2cccnc2)CC1 [Compound 632, N-hydroxy-4-((2-methyl-1-((1-(pyridin-3-ylmethyl)piperidin-4-yl)methyl)-1H-indol-3-yl)methyl)benzamide] | 63 | 1790
9 | Cc1c(Cc2ccc(C(=O)NO)cc2)c2ccccc2n1CCN1CCC(CO)C1 (stereo not drawn) [Compound 586, N-hydroxy-4-((1-(2-(3-(hydroxymethyl)pyrrolidin-1-yl)ethyl)-2-methyl-1H-indol-3-yl)methyl)benzamide] | 16 | 2810
10 | Cc1c(Cc2ccc(C(=O)NO)cc2)c2ccccc2n1CCN1CCC(CF)C1 (stereo not drawn) [Compound 591, 4-((1-(2-(3-(Fluoromethyl)pyrrolidin-1-yl)ethyl)-2-methyl-1H-indol-3-yl)methyl)-N-hydroxybenzamide] | 31 | 6610
11 | Cc1c(Cc2ccc(C(=O)NO)cc2)c2ccccc2n1CCN1CCN(CCO)CC1 [Compound 197, N-hydroxy-4-((1-(2-(4-(2-hydroxyethyl)piperazin-1-yl)ethyl)-2-methyl-1H-indol-3-yl)methyl)benzamide] | 8 | 1810
12 | Cc1c(Cc2ccc(C(=O)NO)cc2)c2ccccc2n1CC1CCN(Cc2cccc(-c3nccs3)c2)CC1 [Compound 603, N-hydroxy-4-((2-methyl-1-((1-(3-(thiazol-2-yl)benzyl)piperidin-4-yl)methyl)-1H-indol-3-yl)methyl)benzamide] | 206 | > 10000
